This note sets out measurements from US20110136229A1, “Novel lectin” (National Taiwan University, priority 2009, published 2011).

The subject of one assay is lectin of Carica papaya. Put plainly: Analysis of sugar-binding specificity (inhibition of lectin-induced hemagglutination by sugars, IC50). The assay is classed as cell-based. Conditions: lowest sugar concentration inhibiting 50% agglutinating activity; peak 1 diluted to HA titer 32. The protocol:
The N-acetylgalactosamine, galactose, lactose, mannose, N-acetylglucosamine solutions were respectively added to the same volume of the samples, and the final sugar concentrations of the solutions were 3.1, 6.3, 12.5, 25, 50 and 100 mM, respectively. Upon well mixing, 50 μL of the mixture of the sample and the sugar solution was added to 50 μL of the human type O erythrocyte suspension (2×10^8 cells/mL) in the 96-well plate. Then, the 96-well plate was placed at 37 °C for 30 minutes, and the inhibition of the hemagglutination was observed. IC50 was defined as the lowest sugar concentration capable of inhibiting 50% agglutinating activity, wherein the inhibition area of the agglutination was at least half area of the bottom of the well.
In this embodiment, the fraction of the peak 1 (HA titer being 512) was diluted for 16 folds (HA titer being 32) for the analysis.

The test system of the next assay is CPL. Put plainly: Hemagglutination inhibition assay on CPL by various sugars (MIC). Conditions: minimum inhibitory concentration for inhibition of 16 hemagglutination titers, 2% human erythrocytes. In kind it is cell-based, Carica papaya. The protocol: The HA titer of the purified lectin in the present invention was 512. The purified lectin was diluted to have the HA titer as 16, and then mixed with various sugar solution to test hemagglutination inhibition on CPL by various sugars. The results were illustrated in Table 3, wherein MIC indicated minimum inhibitory concentrations required for inhibition of 16 hemagglutination titers of the lectin of the present invention against 2% human 0-type erythrocytes, and all sugars are of D configuration.

The test system of assay [1] is CPL (Carica papaya lectin), purified lectin from papaya seeds. Put plainly: Interaction between CPL and immobilized GalNAc residues by surface plasmon resonance. The settings on record: GalNAc-PAA-biotin polymers immobilized on SA chip, CPL 1.8-30 nM as analyte, Biacore T100. The assay is classed as binding. The protocol: (3) Interaction Between CPL and Immobilized GalNAc Residues by Surface Plasmon Resonance
GalNAc-PAA-biotin polymers were immobilized to a sensor chip modified with streptavidin (SA). The regeneration solution for the chip was 50 mM phosphate saline buffer (pH 7.0) containing 200 mM GalNAc. The concentrations of the purified CPL were adjusted to 30, 15, 7.5, 3.7 and 1.8 nM to be analytes, then subjected to the sensor chip immobilized with GalNAc-PAA-biotin polymers, and analyzed by Biacore T100 surface plasmon resonance analyzing machine. The obtained sensorgrams were analyzed and calculated by BIACORE T100 Evaluation software 2.0. After CPL was combined with GalNAc ligand on the sensor chip, the dissociation curve declined gradually. In other words, CPL had great affinity to GalNAc. […] (4) Immunomodulatory Effect of CPL on the Cytotoxicity and Induction of Cytokine Production in Jurkat T Lymphocytes

The subject of assay [2] is Jurkat T lymphocytes. In kind it is cell-based, human. Conditions: 1 μg/mL, 24 hours. The protocol: […] After incubation for 24 hours, cell viability was measured by cell proliferation reagent, WST-1 (4-[3-(4-iodophenyl)-2-(4-nitrophenyl)-2H-5-tetrazolio]-1,3-benzene disulfonate), and the cytokine content in the incubation medium was analyzed. […] 24 μg/mL of CPL had inhibition effect on Jurkat T lymphocytes similar to that of 10 μg/mL of SBA, i.e., inhibiting 30% of viability after 24-hour incubation.

In assay [3] the test system is Jurkat T lymphocytes. Put plainly: IL-2 cytokine production in Jurkat T lymphocytes. The assay is classed as cell-based, human. The settings on record: 10 μg/mL, 24 hr. The protocol: The purified CPL was added to respective 1.8 mL of Jurkat T lymphocytes (2×10^6), wherein the final concentrations of CPL were 24, 12, 6 and 3 μg/mL, respectively. After incubation for 24 hours, cell viability was measured by cell proliferation reagent, WST-1 (4-[3-(4-iodophenyl)-2-(4-nitrophenyl)-2H-5-tetrazolio]-1,3-benzene disulfonate), and the cytokine content in the incubation medium was analyzed. […] 24 μg/mL of CPL had inhibition effect on Jurkat T lymphocytes similar to that of 10 μg/mL of SBA, i.e., inhibiting 30% of viability after 24-hour incubation.
In the control group of Jurkat T lymphocyte without lectin added therein, the concentration of IL-2 upon 24 hr incubation was approximately or lower than 10 pg/mL. However, upon incubation with lectin, Jurkat T lymphocytes were induced to secrete IL-2 into the culture medium. The concentrations of IL-2 secreted from Jurkat T lymphocytes incubated with SBA and PHA (10 μg/mL) were 377±1 and 308±7 pg/mL, respectively. After Jurkat T lymphocytes were incubated with various concentrations of CPL for 24 hours, the concentration of IL-2 in the medium was proportional to the concentration of CPL. In the medium added with 3 μg/mL of CPL, the concentration of IL-2 was 9.7 pg/mL, which had no significant difference from the control group. In the medium added with 6 μg/mL of CPL, the concentration of IL-2 was 44.5 pg/mL. […]

pIC50, pKd: −log10 of the molar value. ≈ marks a conversion by molar mass, not a printed value. A value given as a limit tells only on which side of the number the result lay.

Take `O=C[C@H](O)[C@@H](O)[C@@H](O)[C@H](O)CO` [Galactose]: in the assay on lectin of Carica papaya, the pIC50 (commonly the IC50 on a negative log10 scale, so that one unit is a factor of ten) is < 1.00. Further, the minimal inhibitory concentration (MIC) (commonly the lowest concentration that inhibits growth of the organism) against CPL is reported as >100 mM.
In the assay on lectin of Carica papaya, `OC[C@H]1O[C@@H](O[C@H]2[C@H](O)[C@@H](O)C(O)O[C@@H]2CO)[C@H](O)[C@@H](O)[C@H]1O` (stereo partly shown) [Lactose] had a negative logarithm of the IC50 (pIC50) of 2.20. The MIC with CPL came to 6.3 mM (≈ 2.16 mg/mL).
Regarding `CC(=O)N[C@H]1C(O)O[C@H](CO)[C@H](O)[C@@H]1O` (stereo partly shown) [N-acetylgalactosamine], in the assay with lectin of Carica papaya, the pIC50 was 2.20. In addition, the MIC in the assay on CPL came out at 6.3 mM (≈ 1.39 mg/mL). For the same molecule, in assay [1], the “combination rate (Kon)” value is listed as 5.5×10^4 1/MS and the “dissociation rate (Koff)” value is 3×10^−4 1/S. Further, the pKd – broadly, −log10 of the Kd, conventionally taken in molar units – in assay [1] (read-out: dissociation constant (Kd)) was ~8.26.
For the molecule `CC(=O)N[C@H]1C(O)O[C@H](CO)[C@@H](O)[C@@H]1O` (stereo partly shown) [N-acetylglucosamine], the pIC50 with lectin of Carica papaya was < 1.00. For the same molecule, the MIC in the assay on CPL (listed as GlcNAc) was >100 mM.
With “SBA: soybean agglutinin, which specifically binds to GalNAc”, the effect on viability entry with Jurkat T lymphocytes [2] is “no significant effect”. Besides, the “concentration of IL-2 in medium” value in the assay with Jurkat T lymphocytes [3] is 377 ± 1 pg/mL.
